# Laboratory results taken from patent publication US20090221588A1, “FUNGICIDAL COMPOSITIONS” (SYNGENTA CROP PROTECTION, INC., priority 2006, published 2009).
# Key:
# [1] = tested on: Pseudocercosporella herpotrichoides var. acuformis; assay: Action against Pseudocercosporella herpotrichoides var. acuformis (eyespot/cereals): growth inhibition in nutrient broth, microtiter plate, photometric; assay type: cell-based; details: single active ingredient, 24° C., 72 hrs
# From the text: (§1) The action to be expected E for a given active ingredient combination obeys the so-called COLBY formula and can be calculated as follows (COLBY, S. R. “Calculating synergistic and antagonistic responses of herbicide combination”. Weeds, Vol. 15, pages 20-22; 1967): ppm=milligrams of active ingredient (=a.i.) per liter of spray mixture X=% action by active ingredient A) using p ppm of active ingredient Y=% action by active ingredient B) using q ppm of active ingredient. According to COLBY, the expected (additive) action of active ingredients A)+B) using p+q ppm of active ingredient is If the action actually observed (O) is greater than the expected action (E), then the action of the combination is super-additive, i.e. there is a synergistic effect. In mathematical terms, synergism corresponds to a positive value for the difference of (O-E). In the case of purely complementary addition of activities (expected activity), said difference (O-E) is zero. A negative value of said difference (O-E) signals a loss of activity compared to the expected activity. In the following examples a specific compound of formula (I) was used. Said compound of formula (I) was a mixture of the racemic syn- and anti-compound of formula (I), in a syn/anti-ratio of 9:1. Conidia of the fungus from cryogenic storage are directly mixed into nutrient broth (PDB potato dextrose broth). After placing a (DMSO) solution of the test compounds into a microtiter plate (96-well format) the nutrient broth containing the fungal spores is added. […] The fungicide interactions in the combinations are calculated according to COLBY method.
# Septoria tritici = assay: Action against Septoria tritici: growth inhibition in nutrient broth, microtiter plate, photometric; assay type: cell-based; details: single active ingredient, 24° C., 72 hrs
# From the text: as §1
Compound,Observed control in % (% Cobs) ([1]; 0.016 ppm [mg/L] final medium) [%],Observed control in % (% Cobs) ([1]; 0.031 ppm [mg/L] final medium) [%],Observed control in % (% Cobs) ([1]; 0.063 ppm [mg/L] final medium) [%],Observed control in % (% Cobs) (Septoria tritici; 0.063 ppm [mg/L] final medium) [%],Observed control in % (% Cobs) (Septoria tritici; 0.125 ppm [mg/L] final medium) [%]
"CC(C)C1C2CCC1c1c(NC(=O)c3cn(C)nc3C(F)F)cccc12 (racemic) [Cpd I, 3-difluoromethyl-1-methyl-1H-pyrazole-4-carboxylic acid (9-isopropyl-1,2,3,4-tetrahydro-1,4-methano-naphthalen-5-yl)-amide]",12,40,67,26,52
"O=C(NCCc1ncc(C(F)(F)F)cc1Cl)c1ccccc1C(F)(F)F [Cpd B-1.1, fluopyram]",1,3,14,6,0
